According to patent US9771334B2, “Triketone compound and preparation method and use thereof” (SHANDONG CYNDA CHEMICAL CO., LTD., priority 2013, dated 2017):

Legend:
Assay in all cases: Herbicidal activity, pot culture method (primary and secondary screening test)
Type in all cases: in vivo
Conditions in all cases: primary screening, pot culture, 150 g/ha, sprayed at 3-leaf stage, result 15 days later
[1] = test system: setaria viridis
Procedure, shortened: (§1)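 Weeds were sown in 1:2 garden soil:seedling matrix and sprayed at the 3-leaf stage by automatic spray tower. Compounds were dissolved in DMF and diluted in water to 0.2 g/L, dosed at 150 g/ha; the secondary screen used a reduced dose. Inhibition ratio (%) was assessed after 15 days in the greenhouse.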

[2] = test system: abutilon theophrasti
Procedure, shortened: as §1

[3] = test system: eclipta prostrata
Procedure, shortened: as §1

[4] = test system: amaranthus retroflexus
Procedure, shortened: as §1

[5] = test system: echinochloa crusgalli
Procedure, shortened: as §1

[6] = test system: digitaria sanguinalis
Procedure, shortened: as §1

| SMILES | herbicidal activity inhibition ratio (%), Setaria viridis [1] [%] | herbicidal activity inhibition ratio (%), Abutilon theophrasti [2] [%] | herbicidal activity inhibition ratio (%), Eclipta prostrata [3] [%] | herbicidal activity inhibition ratio (%), Amaranthus retroflexus [4] [%] | herbicidal activity inhibition ratio (%), Echinochloa crusgalli [5] [%] | herbicidal activity inhibition ratio (%), Digitaria sanguinalis [6] [%] |
| --- | --- | --- | --- | --- | --- | --- |
| Cn1c(=O)n(-c2ccc(Br)cc2)c(=O)c2cc(C(=O)C3=C(O)CCCC3=O)ccc21 [Compound 25] | 35 | 80 | 83 | 95 | 80 | 80 |
| Cn1c(=O)n(-c2ccc(F)cc2)c(=O)c2cc(C(=O)C3=C(O)CCCC3=O)ccc21 [Compound 9] | 100 | 100 | 95 | 100 | 85 | 75 |
| COc1cccc(-n2c(=O)c3cc(C(=O)C4=C(O)CC(C)(C)CC4=O)ccc3n(C)c2=O)c1 [Compound 56] | 60 | 55 | 75 | 80 | 60 | 55 |
| CC(C)c1cccc(C(C)C)c1-n1c(=O)c2cc(C(=O)C3=C(O)CCCC3=O)ccc2n(C)c1=O [Compound 46] | 20 | 35 | 70 | 100 | 60 | 55 |
| Cn1c(=O)n(-c2ccc([N+](=O)[O-])cc2)c(=O)c2cc(C(=O)C3=C(O)CCCC3=O)ccc21 [Compound 45] | 10 | 60 | 83 | 90 | 50 | 40 |
| Cn1c(=O)n(-c2ccccc2Br)c(=O)c2cc(C(=O)C3=C(O)CCCC3=O)ccc21 [Compound 27] | 60 | 83 | 80 | 100 | 90 | 90 |
| CC1CC(=O)C(C(=O)c2ccc3c(c2)c(=O)n(-c2ccc(Cl)cc2Cl)c(=O)n3C)=C(O)C1 (stereo not drawn) [Compound 64] | 93 | 95 | 0 | 80 | 90 | 60 |
| Cn1c(=O)n(-c2cccc(Cl)c2)c(=O)c2cc(C(=O)C3=C(O)CCCC3=O)ccc21 [Compound 3] | 100 | 80 | 80 | 100 | 80 | 70 |
| Cc1c(C(=O)C2=C(O)CCCC2=O)ccc2c1c(=O)n(-c1ccccc1C(F)(F)F)c(=O)n2C [Compound 92, 6-[(2-hydroxy-6-oxo-1-cyclohexenyl)carbonyl]-1,5-dimethyl-3-(2-(trifluoromethyl)phenyl)quinazoline-2,4(1H,3H)-dione] | 100 | 100 | 100 | 100 | 100 | 100 |
| COc1ccccc1-n1c(=O)c2cc(C(=O)C3=C(O)CC(C)(C)CC3=O)ccc2n(C)c1=O [Compound 48] | 50 | 50 | 85 | 95 | 85 | 85 |
| Cc1cccc(Cl)c1-n1c(=O)c2cc(C(=O)C3=C(O)CCCC3=O)ccc2n(C)c1=O [Compound 95] | 100 | 100 | 70 | 100 | 100 | 90 |
| C#CCn1c(=O)n(-c2ccccc2C)c(=O)c2cc(C(=O)C3=C(O)CC(C)(C)CC3=O)ccc21 [Compound 78] | 10 | 0 | 0 | 0 | 0 | 0 |
| Cn1c(=O)n(-c2ccccc2C(F)(F)F)c(=O)c2cc(C(=O)C3=C(O)CCCC3=O)ccc21 [Compound 38] | 80 | 90 | 75 | 100 | 90 | 85 |
| CC(C)c1ccc(-n2c(=O)c3cc(C(=O)C4=C(O)CCCC4=O)ccc3n(C)c2=O)cc1 [Compound 36] | 50 | 50 | 0 | 35 | 25 | 100 |
| Cn1c(=O)n(-c2cccc(C(F)(F)F)c2)c(=O)c2cc(C(=O)C3=C(O)CCCC3=O)ccc21 [Compound 52] | 80 | 55 | 75 | 98 | 85 | 50 |
| CC(C)c1ccccc1-n1c(=O)c2cc(C(=O)C3=C(O)CCCC3=O)ccc2n(C)c1=O [Compound 97] | 50 | 98 | 90 | 100 | 55 | 50 |
| Cn1c(=O)n(-c2cc(Cl)cc(Cl)c2)c(=O)c2cc(C(=O)C3=C(O)CC(C)(C)CC3=O)ccc21 [Compound 8] | 85 | 0 | 80 | 100 | 75 | 90 |
| Cn1c(=O)n(-c2ccccc2F)c(=O)c2cc(C(=O)C3=C(O)CC(C)(C)CC3=O)ccc21 [Compound 13] | 100 | 100 | 90 | 100 | 90 | 90 |
| Cc1ccc(-n2c(=O)c3cc(C(=O)C4=C(O)CCCC4=O)ccc3n(C)c2=O)cc1 [Compound 14] | 75 | 75 | 75 | 100 | 75 | 75 |
